Where a name gives a salt, the structure may show the parent alone.
Tests used:
Assay type in all cases: cell-based
sonic hedgehog pathway [1] = test: Hedgehog pathway Gli-luciferase reporter assay, TM3 cells; details: TM3 mouse Leydig cells
Procedure, shortened: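 Luminescence read-out of gli-promoter luciferase in stably transfected cells; 11-point 1:3 dose curves, 24 h compound exposure in 0.5% FBS, ± octyl-modified Hh protein 1–5 ng/ml. AMAX as % of plate low/high controls; EC50 from curve; >20% AMAX counted active.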

sonic hedgehog pathway [2] = test: Hedgehog pathway Gli-luciferase reporter assay, S12 cells; details: S12 mouse embryonic mesenchymal cells
Description: Mouse (TM3: mouse Leydig cells; S12: mouse embryonic mesenchymal cells) and human (Daoy: human medulloblastoma cell; HepM: human embryonic palatal mesenchymal cell) cell lines are used to screen small molecules for their ability to modulate the activity of the sonic hedgehog pathway (Table 1, Table 2, and Table 3). Stable hedgehog pathway reporter cell lines are established by specific antibiotic selection following transfection of a reporter plasmid containing a luciferase gene located directly downstream from the gli promoter. Consequently, any observable changes in cellular luciferase activity may be attributed to changes in sonic hedgehog pathway activity in mouse and human cells, respectively, since gli is the major by-product of this pathway. To calculate activity, we generate an eleven point dose curve for each compound using 1:3 dilutions in 96 well assay plates. Each plate tested also contains low and high control to establish maximal pathway activation so to establish/compare a percentage activation of each tested compound (AMAX) on respective plates. Also we calculate EC50 values, or a concentration where the pathway will be exactly 50% activated, for each tested compound to determine potency. In these cell lines, compounds that register >20% AMAX values are considered active.
Stable hedgehog pathway reporter cell lines are established following specific antibiotic selection following transfection of a reporter plasmid In short, typically cells are plated in MicroTiter-plates at 10,000-20,000 cells per well, in growth media (containing 10%-20% FBS). After 48-72 hrs (HGL and DGL respectively) the media in the assay plates is switched to low-serum containing media (0.5% FBS). At that time compounds are added (at 1-5 μM) to the assay plates, in the presence or absence of hedgehog protein (octyl-modified version; 1-5 ng/ml). After another 24 hrs of incubation, the media from the assay plates is discarded and replaced with luciferase assay-mix. Subsequently, plates are incubated at RT for ˜15-30 mins and then read in a luminometer. [note: addition of the Hedgehog protein, although not critical, will sensitize the assay allowing the identification of weak actives].

sonic hedgehog pathway [3] = test: Human hedgehog reporter assay HEPM-GliLuc (HGL); details: HepM human embryonic palatal mesenchymal cells, Gli-luciferase reporter
Procedure, shortened: (§1)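 Stable Gli-promoter luciferase reporter lines (human HepM, Daoy; mouse S12) plated at 10,000–20,000 cells/well, switched to 0.5% FBS after 48–72 h, then given compound (1–5 μM; 11-point 1:3 dose curves) with or without octyl-modified hedgehog protein (1–5 ng/ml) for 24 h. Luminescence read; AMAX vs plate controls and EC50 derived.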

sonic hedgehog pathway [4] = test: Human hedgehog reporter assay Daoy-GliLuc (DGL); details: Daoy human medulloblastoma cells, Gli-luciferase reporter
Procedure, shortened: as §1

Measured: EC50

CN[C@H]1CC[C@@H](N(Cc2cc(-c3ccc(N)nc3)ccc2OC)C(=O)c2sc3cccc(F)c3c2Cl)CC1 [362 (R13), 3-Chloro-4-fluoro-benzo[b]thiophene-2-carboxylic acid [5-(6-amino-pyridin-3-yl)-2-methoxy-benzyl]-(4-methylamino-cyclohexyl)-amide dihydrochloride]
< 50 nM: sonic hedgehog pathway [1] | sonic hedgehog pathway [2]; read-out: S12 Avg. EC50 | sonic hedgehog pathway [3] | sonic hedgehog pathway [4]; read-out: Daoy Avg. EC50

CN[C@H]1CC[C@@H](N(Cc2cc(-c3ccc(C(=O)N(C)C)cc3)ccc2OC)C(=O)c2sc3c(F)ccc(F)c3c2Cl)CC1 [Compound 333, 3-Chloro-4,7-difluoro-benzo[b]thiophene-2-carboxylic acid (4′-dimethylcarbamoyl-4-methoxy-biphenyl-3-ylmethyl)-(4-methylamino-cyclohexyl)-amide hydrochloride]
< 50 nM: sonic hedgehog pathway [1] | sonic hedgehog pathway [2]; read-out: S12 Avg. EC50 | sonic hedgehog pathway [3] | sonic hedgehog pathway [4]; read-out: Daoy Avg. EC50

CN[C@H]1CC[C@@H](N(Cc2cc(-c3ccc(NS(C)(=O)=O)nc3)ccc2OC)C(=O)c2sc3c(F)ccc(F)c3c2Cl)CC1 [Compound R10, 3-Chloro-4,7-difluoro-benzo[b]thiophene-2-carboxylic acid [5-(6-methanesulfonylamino-pyridin-3-yl)-2-methoxy-benzyl]-(4-methylamino-cyclohexyl)-amide dihydrochloride]
< 50 nM: sonic hedgehog pathway [1] | sonic hedgehog pathway [2]; read-out: S12 Avg. EC50 | sonic hedgehog pathway [3]

CN[C@H]1CC[C@H](N(Cc2cc(-c3ccnc(C(=O)OC)c3)ccc2OC)C(=O)c2sc3c(F)ccc(F)c3c2Cl)CC1 [Compound R5, Methyl 4-(3-{[(3-chloro-4,7-difluoro-benzo[b]thiophene-2-carbonyl)-(4-methylamino-cyclohexyl)-amino]-methyl}-4-methoxy-phenyl)-pyridine-2-carboxylate]
< 50 nM: sonic hedgehog pathway [1] | sonic hedgehog pathway [2]; read-out: S12 Avg. EC50 | sonic hedgehog pathway [3] | sonic hedgehog pathway [4]; read-out: Daoy Avg. EC50

CN[C@H]1CC[C@@H](N(Cc2cc(-c3cccnc3)ccc2OC)C(=O)c2sc3cccc(F)c3c2Cl)CC1 [360 (R16), 3-Chloro-4-fluoro-benzo[b]thiophene-2-carboxylic acid (2-methoxy-5-pyridin-3-yl-benzyl)-(4-methylamino-cyclohexyl)-amide dihydrochloride]
< 50 nM: sonic hedgehog pathway [1] | sonic hedgehog pathway [2]; read-out: S12 Avg. EC50 | sonic hedgehog pathway [3] | sonic hedgehog pathway [4]; read-out: Daoy Avg. EC50

CN[C@H]1CC[C@@H](N(Cc2cc(-c3ccc(N(C)C(C)=O)cc3)ccc2OC)C(=O)c2sc3c(F)ccc(F)c3c2Cl)CC1 [Compound 336, 3-Chloro-4,7-difluoro-benzo[b]thiophene-2-carboxylic acid [4′-(acetyl-methyl-amino)-4-methoxy-biphenyl-3-ylmethyl]-(4-methylamino-cyclohexyl)-amide hydrochloride]
< 50 nM: sonic hedgehog pathway [1] | sonic hedgehog pathway [2]; read-out: S12 Avg. EC50 | sonic hedgehog pathway [3] | sonic hedgehog pathway [4]; read-out: Daoy Avg. EC50

CN[C@H]1CC[C@@H](N(Cc2cc(-c3ccncc3)ccc2OC)C(=O)c2sc3c(F)ccc(F)c3c2Cl)CC1 [Compound 342, 3-Chloro-4,7-difluoro-benzo[b]thiophene-2-carboxylic acid (2-methoxy-5-pyridin-4-yl-benzyl)-(4-methylamino-cyclohexyl)-amide dihydrochloride]
< 50 nM: sonic hedgehog pathway [1] | sonic hedgehog pathway [2]; read-out: S12 Avg. EC50 | sonic hedgehog pathway [3] | sonic hedgehog pathway [4]; read-out: Daoy Avg. EC50

CN[C@H]1CC[C@@H](N(Cc2cc(-c3ccc(C(N)=O)cc3)ccc2OC)C(=O)c2sc3ccccc3c2Cl)CC1 [Compound 316, 3-Chloro-benzo[b]thiophene-2-carboxylic acid (4′-carbamoyl-4-methoxy-biphenyl-3-ylmethyl)-(4-methylamino-cyclohexyl)-amide hydrochloride]
< 50 nM: sonic hedgehog pathway [1] | sonic hedgehog pathway [2]; read-out: S12 Avg. EC50 | sonic hedgehog pathway [3]

CN[C@H]1CC[C@@H](N(Cc2cc(-c3ccnc(N)c3)ccc2OC)C(=O)c2sc3c(F)ccc(F)c3c2Cl)CC1 [Compound 355]
< 50 nM: sonic hedgehog pathway [1] | sonic hedgehog pathway [2]; read-out: S12 Avg. EC50 | sonic hedgehog pathway [3]

CN[C@H]1CC[C@@H](N(Cc2cc(-c3ccc(CO)cc3)ccc2OC)C(=O)c2sc3c(F)ccc(F)c3c2Cl)CC1 [Compound 338, 3-Chloro-4,7-difluoro-benzo[b]thiophene-2-carboxylic acid (4′-hydroxymethyl-4-methoxy-biphenyl-3-ylmethyl)-(4-methylamino-cyclohexyl)-amide trifluoroacetate]
< 50 nM: sonic hedgehog pathway [1] | sonic hedgehog pathway [2]; read-out: S12 Avg. EC50 | sonic hedgehog pathway [3] | sonic hedgehog pathway [4]; read-out: Daoy Avg. EC50

CN[C@H]1CC[C@@H](N(Cc2cc(-c3ccnc(C(=O)N(C)C)c3)ccc2OC)C(=O)c2sc3c(F)ccc(F)c3c2Cl)CC1 [Compound R9, 4-(3-{[(3-Chloro-4,7-difluoro-benzo[b]thiophene-2-carbonyl)-(4-methylamino-cyclohexyl)-amino]-methyl}-4-methoxy-phenyl)-pyridine-2-carboxylic acid dimethylamide dihydrochloride]
< 50 nM: sonic hedgehog pathway [1] | sonic hedgehog pathway [2]; read-out: S12 Avg. EC50 | sonic hedgehog pathway [3] | sonic hedgehog pathway [4]; read-out: Daoy Avg. EC50

CN[C@H]1CC[C@@H](N(Cc2cc(-c3ccc(N)nc3)ccc2OC)C(=O)c2sc3ccccc3c2Cl)CC1 [Compound 319, 3-Chloro-benzo[b]thiophene-2-carboxylic acid [5-(6-amino-pyridin-3-yl)-2-methoxy-benzyl]-(4-methylamino-cyclohexyl)-amide dihydrochloride]
< 50 nM: sonic hedgehog pathway [1] | sonic hedgehog pathway [2]; read-out: S12 Avg. EC50 | sonic hedgehog pathway [3]

CN[C@H]1CC[C@@H](N(Cc2cc(-c3ccc(C(C)=O)cc3)ccc2OC)C(=O)c2sc3c(F)ccc(F)c3c2Cl)CC1 [Compound 332, 3-Chloro-4,7-difluoro-benzo[b]thiophene-2-carboxylic acid (4′-acetyl-4-methoxy-biphenyl-3-ylmethyl)-(4-methylamino-cyclohexyl)-amide hydrochloride]
< 50 nM: sonic hedgehog pathway [1] | sonic hedgehog pathway [2]; read-out: S12 Avg. EC50 | sonic hedgehog pathway [3] | sonic hedgehog pathway [4]; read-out: Daoy Avg. EC50

CN[C@H]1CC[C@@H](N(Cc2cc(-c3ccncc3)ccc2O)C(=O)c2sc3c(F)ccc(F)c3c2Cl)CC1 [Compound 368, 3-Chloro-4,7-difluoro-benzo[b]thiophene-2-carboxylic acid (2-hydroxy-5-pyridin-4-yl-benzyl)-(4-methylamino-cyclohexyl)-amide dihydrochloride]
< 50 nM: sonic hedgehog pathway [2]; read-out: S12 Avg. EC50 | sonic hedgehog pathway [3] | sonic hedgehog pathway [4]; read-out: Daoy Avg. EC50

CN[C@H]1CC[C@@H](N(Cc2cc(-c3ccc(CO)cc3)ccc2OC)C(=O)c2sc3ccccc3c2Cl)CC1 [Compound 329, 3-Chloro-benzo[b]thiophene-2-carboxylic acid (4′-hydroxymethyl-4-methoxy-biphenyl-3-ylmethyl)-(4-methylamino-cyclohexyl)-amide hydrochloride]
< 50 nM: sonic hedgehog pathway [1] | sonic hedgehog pathway [2]; read-out: S12 Avg. EC50 | sonic hedgehog pathway [3]

CN[C@H]1CC[C@@H](N(Cc2cc(-c3ccc(C(=O)N(C)C)cc3)ccc2OC)C(=O)c2sc3ccccc3c2Cl)CC1 [317 (R19)]
< 50 nM: sonic hedgehog pathway [1] | sonic hedgehog pathway [2]; read-out: S12 Avg. EC50 | sonic hedgehog pathway [3]

CCS(=O)(=O)c1ccc(-c2ccc(OC)c(CN(C(=O)c3sc4c(F)ccc(F)c4c3Cl)[C@H]3CC[C@@H](NC)CC3)c2)cc1 [Compound 389, 3-Chloro-4,7-difluoro-benzo[b]thiophene-2-carboxylic acid (4′-ethanesulfonyl-4-methoxy-biphenyl-3-ylmethyl)-(4-methylamino-cyclohexyl)-amide hydrochloride]
< 50 nM: sonic hedgehog pathway [2]; read-out: Mouse S12 Avg. EC50 | sonic hedgehog pathway [4]; read-out: Human Daoy (Gli-Luc) Avg. EC50
